Test results reported in US7368578B2, “Five-membered heterocyclic compounds” (Takeda Pharmaceutical Company Limited, priority 2002, dated 2008).

Q: For COc1cc(COc2nn(-c3ccccc3)cc2/C=C/c2nc(C)cs2)ccc1OCc1nc(-c2ccco2)oc1C [Example 185, 2-(2-furyl)-4-({2-methoxy-4-[({4-[(E)-2-(4-methyl-1,3-thiazol-2-yl)ethenyl]-1-phenyl-1H-pyrazol-3-yl}oxy)methyl]phenoxy}methyl)-5-methyl-1,3-oxazole], which melting point is on record?
A: 130 to 131 °C

Q: With CCc1cc(COc2nn(Cc3ccccc3)cc2C=O)ccc1OCc1nc(-c2ccco2)oc1C [Example 71, 1-benzyl-3-[(3-ethyl-4-{[2-(2-furyl)-5-methyl-1,3-oxazol-4-yl]methoxy}benzyl)oxy]-1H-pyrazole-4-carbaldehyde] as the molecule, how does the melting point read?
A: 128 to 129 °C

Q: Which melting point does the source give for CCOP(=O)(/C=C/c1cn(CC)nc1OCc1ccc(OCc2nc(-c3ccco3)oc2C)c(OC)c1)OCC here?
A: 82 to 84 °C

Q: Which melting point does the source give for Cc1oc(-c2ccco2)nc1COc1ccc(COc2nn(Cc3ccccc3)cc2C(=O)O)cn1 [Example 43, 1-benzyl-3-[(6-{[2-(2-furyl)-5-methyl-1,3-oxazol-4-yl]methoxy}-3-pyridinyl)methoxy]-1H-pyrazole-4-carboxylic acid] here?
A: 151 to 152 °C

Q: With CCOC(=O)Cc1ccc(-c2nc(COc3ccc(COc4nn(-c5ccccc5)cc4/C=C/c4csc(CC)n4)cc3OC)c(C)o2)cc1 [Example 338, ethyl {4-[4-({4-[({4-[(E)-2-(2-ethyl-1,3-thiazol-4-yl)ethenyl]-1-phenyl-1H-pyrazol-3-yl}oxy)methyl]-2-methoxyphenoxy}methyl)-5-methyl-1,3-oxazol-2-yl]phenyl}acetate] as the molecule, how does the melting point read?
A: 140 to 141 °C

Q: With CCOc1cc(COc2nn(Cc3ccccc3)cc2C=O)ccc1OCc1nc(-c2ccco2)oc1C [Example 31, 1-benzyl-3-[(3-ethoxy-4-{[2-(2-furyl)-5-methyl-1,3-oxazol-4-yl]methoxy}benzyl)oxy]-1H-pyrazole-4-carbaldehyde] as the molecule, how does the melting point read?
A: 144 to 145 °C

Q: Which melting point does the source give for CCOP(=O)(/C=C/c1cn(-c2ccccc2)nc1OCc1ccc(OCc2nc(N3CCOCC3)sc2C)c(OC)c1)OCC here?
A: 88 to 90 °C

Q: With CCOC(=O)c1cn(Cc2ccccc2)nc1OCc1ccc(OCc2nc(-c3ccco3)oc2C)c(-c2ccccc2)c1 [Example 56, ethyl 1-benzyl-3-[(4-{[2-(2-furyl)-5-methyl-1,3-oxazol-4-yl]methoxy}-3-phenylbenzyl)oxy]-1H-pyrazole-4-carboxylate] as the molecule, how does the melting point read?
A: 134 to 135 °C

Q: For CCOP(=O)(/C=C/c1cn(-c2ccccc2)nc1OCc1ccc(OCc2nc(-c3ccco3)oc2C)cc1)OCC, which melting point is on record?
A: 131 to 132 °C

Q: Which melting point does the source give for COc1cc(COc2nn(CCO)cc2C=O)ccc1OCc1nc(-c2ccco2)oc1C [Example 179, 3-[(4-{[2-(2-furyl)-5-methyl-1,3-oxazol-4-yl]methoxy}-3-methoxybenzyl)oxy]-1-(2-hydroxyethyl)-1H-pyrazole-4-carbaldehyde] here?
A: 149 to 150 °C

Q: With COc1cc(COc2nn(-c3ccccc3)cc2/C=C/c2ccccn2)ccc1OCc1nc(-c2ccco2)oc1C [Example 113, 2-((E)-2-{3-[(4-{[2-(2-furyl)-5-methyl-1,3-oxazol-4-yl]methoxy}-3-methoxybenzyl)oxy]-1-phenyl-1H-pyrazol-4-yl}ethenyl)pyridine] as the molecule, how does the melting point read?
A: 135 to 136 °C

Q: Which melting point does the source give for Cc1oc(-c2ccco2)nc1COc1ccc(COc2nn(Cc3ccccc3)cc2C(=O)O)cc1Cl [Example 38, 1-benzyl-3-[(3-chloro-4-{[2-(2-furyl)-5-methyl-1,3-oxazol-4-yl]methoxy}benzyl)oxy]-1H-pyrazole-4-carboxylic acid] here?
A: 191 to 192 °C

Q: For Cc1oc(-c2ccco2)nc1COc1ccc(COc2nn(Cc3ccccc3)cc2C(=O)O)cc1OCc1ccccc1 [Example 51, 1-benzyl-3-[(3-benzyloxy-4-{[2-(2-furyl)-5-methyl-1,3-oxazol-4-yl]methoxy}benzyl)oxy]-1H-pyrazole-4-carboxylic acid], which melting point is on record?
A: 184 to 185 °C

Q: For Cc1oc(-c2ccco2)nc1COc1ccc(COc2nn(Cc3ccccc3)cc2C=O)cc1-c1ccccc1 [Example 59, 1-benzyl-3-[(4-{[2-(2-furyl)-5-methyl-1,3-oxazol-4-yl]methoxy}-3-phenylbenzyl)oxy]-1H-pyrazole-4-carbaldehyde], which melting point is on record?
A: 122 to 123 °C

Q: Which melting point does the source give for COC(=O)c1cc(OCc2ccc(OCc3nc(-c4ccccc4)oc3C)c(OC)c2)nn1-c1ccccc1 [Example 291, methyl 3-{[3-methoxy-4-(5-methyl-2-phenyl-1,3-oxazol-4-ylmethoxy)benzyl]oxy}-1-phenyl-1H-pyrazole-5-carboxylate] here?
A: 143 to 144 °C

Q: For COc1cc(COc2nn(-c3ccccc3)cc2C=O)ccc1OCc1nc(-c2cccc(C#N)c2)oc1C [Example 332, 3-{4-[(4-{[(4-formyl-1-phenyl-1H-pyrazol-3-yl)oxy]methyl)-2-methoxyphenoxy}methyl]-5-methyl-1,3-oxazol-2-yl}benzonitrile], which melting point is on record?
A: 161 to 162 °C

Q: For CCc1nc(/C=C/c2cn(-c3ccccc3)nc2OCc2ccc(OCc3nc(-c4cccc(-c5noc(=O)[nH]5)c4)oc3C)c(OC)c2)cs1 [Example 375, 3-{3-[4-({4-[({4-[(E)-2-(2-ethyl-1,3-thiazol-4-yl)ethenyl]-1-phenyl-1H-pyrazol-3-yl}oxy)methyl]-2-methoxyphenoxy}methyl)-5-methyl-1,3-oxazol-2-yl]phenyl}-1,2,4-oxadiazol-5(4H)-one], which melting point is on record?
A: 139 to 140 °C

Q: With COc1cc(COc2nn(-c3ccccc3)cc2/C=C\c2csc(C)n2)ccc1OCc1nc(-c2ccco2)oc1C [Example 150 (Z form), 2-(2-furyl)-4-({2-methoxy-4-[({4-[(Z)-2-(2-methyl-1,3-thiazol-4-yl)ethenyl]-1-phenyl-1H-pyrazol-3-yl}oxy)methyl]phenoxy}methyl)-5-methyl-1,3-oxazole] as the molecule, how does the melting point read?
A: 164 to 165 °C

Q: For CCOP(=O)(/C=C/c1cn(-c2ccccc2)nc1OCc1ccc(OCc2nc(-c3ccc(C(N)=O)cc3)oc2C)c(OC)c1)OCC, which melting point is on record?
A: 146 to 148 °C

Q: For COc1cc(COc2nc(-c3ccccc3)ncc2C(=O)O)ccc1OCc1nc(-c2ccco2)oc1C [Example 305, 4-[(4-{[2-(2-furyl)-5-methyl-1,3-oxazol-4-yl]methoxy}-3-methoxybenzyl)oxy]-2-phenylpyrimidine-5-carboxylic acid], which melting point is on record?
A: 163 to 164 °C

Q: Which melting point does the source give for CCOC(=O)Cc1ccc(-c2nc(COc3ccc(COc4nn(-c5ccccc5)cc4/C=C\c4csc(C(C)C)n4)cc3OC)c(C)o2)cc1 [Example 360, ethyl {4-[4-({4-[({4-[(Z)-2-(2-isopropyl-1,3-thiazol-4-yl)ethenyl]-1-phenyl-1H-pyrazol-3-yl}oxy)methyl]-2-methoxyphenoxy}methyl)-5-methyl-1,3-oxazol-2-yl]phenyl}acetate] here?
A: 126 to 127 °C

Q: With CCOC(=O)/C=C/c1nc(COc2ccc(COc3nn(-c4ccccc4)cc3/C=C/c3csc(CC)n3)cc2OC)c(C)o1 [Example 322 (E form), ethyl (2E)-3-[4-({4-[({4-[(E)-2-(2-ethyl-1,3-thiazol-4-yl)ethenyl]-1-phenyl-1H-pyrazol-3-yl}oxy)methyl]-2-methoxyphenoxy}methyl)-5-methyl-1,3-oxazol-2-yl]-2-propenoate] as the molecule, how does the melting point read?
A: 95 to 96 °C

Q: With Cc1cc(COc2nn(Cc3ccccc3)cc2C(=O)O)ccc1OCc1nc(-c2ccco2)oc1C [Example 61, 1-benzyl-3-[(4-{[2-(2-furyl)-5-methyl-1,3-oxazol-4-yl]methoxy}-3-methylbenzyl)oxy]-1H-pyrazole-4-carboxylic acid] as the molecule, how does the melting point read?
A: 176 to 177 °C

Q: For CCOC(=O)c1ccc(-c2nc(COc3ccc(COc4nn(-c5ccccc5)cc4/C=C/P(=O)(OCC)OCC)cc3OC)c(C)o2)s1, which melting point is on record?
A: 114 to 115 °C

Q: For CCOC(=O)Cc1ccc(-c2nc(COc3ccc(COc4nn(-c5ccccc5)cc4/C=C/c4cn(CC)cn4)cc3OC)c(C)o2)cc1 [Example 343, ethyl (4-{4-[(4-[({4-[(E)-2-(1-ethyl-1H-imidazol-4-yl)ethenyl]-1-phenyl-1H-pyrazol-3-yl}oxy)methyl]-2-methoxyphenoxy)methyl]-5-methyl-1,3-oxazol-2-yl}phenyl)acetate], which melting point is on record?
A: 140 to 141 °C

Q: For COCOc1cc(COc2nn(Cc3ccccc3)cc2C=O)ccc1OCc1nc(-c2ccco2)oc1C [Example 45, 1-benzyl-3-([4-{[2-(2-furyl)-5-methyl-1,3-oxazol-4-yl]methoxy}-3-(methoxymethoxy)benzyl]oxy)-1H-pyrazole-4-carbaldehyde], which melting point is on record?
A: 141 to 142 °C

Q: For CCOc1cc(COc2nn(-c3ccccc3)cc2C=O)ccc1OCc1nc(-c2ccco2)oc1C [Example 154, 3-[(3-ethoxy-4-{[2-(2-furyl)-5-methyl-1,3-oxazol-4-yl]methoxy}benzyl)oxy]-1-phenyl-1H-pyrazole-4-carbaldehyde], which melting point is on record?
A: 149 to 150 °C

Q: With COc1cc(COc2cc(/C=C/c3ccccn3)n(-c3ccccc3)n2)ccc1OCc1nc(-c2ccco2)oc1C [Example 140, 2-((E)-2-{3-[(4-{[2-(2-furyl)-5-methyl-1,3-oxazol-4-yl]methoxy}-3-methoxybenzyl)oxy]-1-phenyl-1H-pyrazol-5-yl}ethenyl)pyridine] as the molecule, how does the melting point read?
A: 122 to 123 °C

Q: For CCOC(=O)c1ccc(-c2nc(COc3ccc(COc4nn(-c5ccccc5)cc4/C=C/c4csc(CC)n4)cc3OC)c(C)o2)s1 [Example 330 (E form), ethyl 5-[4-({4-[({4-[(E)-2-(2-ethyl-1,3-thiazol-4-yl)ethenyl]-1-phenyl-1H-pyrazol-3-yl}oxy)methyl]-2-methoxyphenoxy}methyl)-5-methyl-1,3-oxazol-2-yl]thiophene-2-carboxylate], which melting point is on record?
A: 145 to 146 °C

Q: For CCOC(=O)c1cn(Cc2cccnc2)nc1OCc1ccc(OCc2nc(-c3ccco3)oc2C)c(OC)c1 [Example 199, ethyl 3-[(4-{[2-(2-furyl)-5-methyl-1,3-oxazol-4-yl]methoxy}-3-methoxybenzyl)oxy]-1-(pyridin-3-ylmethyl)-1H-pyrazole-4-carboxylate], which melting point is on record?
A: 131 to 132 °C

Q: With COc1cc(COc2nn(-c3ccccc3)cc2/C=C/c2nc(C(=O)O)cs2)ccc1OCc1nc(-c2ccco2)oc1C [Example 187, 2-((E)-2-{3-[(4-{[2-(2-furyl)-5-methyl-1,3-oxazol-4-yl]methoxy}-3-methoxybenzyl)oxy]-1-phenyl-1H-pyrazol-4-yl}ethenyl)-1,3-thiazole-4-carboxylic acid] as the molecule, how does the melting point read?
A: 170 to 172 °C
